Patent US10597388B2, “Pyridazinone herbicides” (FMC CORPORATION, priority 2014, dated 2020)

Legend:
Experiment in all cases: Test D controlled growth environment herbicide test, pre- and postemergence
Assay type in all cases: in vivo
[1] = system: barley, spring (spring barley, Hordeum vulgare)
Summary of the method: (§1)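 Pre-emergence: seeds sown in silt loam soil were sprayed with compound in a non-phytotoxic solvent mix containing surfactant. Post-emergence: plants at 2 to 18 cm (1- to 4-leaf stage) in peat moss/vermiculite medium got the same formulation. Visual 0–100 rating versus controls after 14 to 21 d.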

[2] = system: barley, winter (winter barley, Hordeum vulgare)
Summary of the method: as §1

[3] = system: bluegrass (annual bluegrass, Poa annua)
Summary of the method: as §1

[4] = system: bromegrass, downy (downy bromegrass, Bromus tectorum)
Summary of the method: as §1

[5] = system: canarygrass (Phalaris minor)
Summary of the method: as §1

[6] = system: chamomile (scentless chamomile, Matricaria inodora)
Summary of the method: as §1

[7] = system: foxtail, green (green foxtail, Setaria viridis)
Summary of the method: as §1

[8] = system: galium (catchweed bedstraw, Galium aparine)
Summary of the method: as §1

kochia (Kochia scoparia) = system: kochia (Kochia scoparia)
Summary of the method: as §1

[9] = system: lambsquarters (Chenopodium album)
Summary of the method: as §1

[10] = system: mustard, wild (wild mustard, Sinapis arvensis)
Summary of the method: as §1

[11] = system: oat, wild (wild oat, Avena fatua)
Summary of the method: as §1

[12] = system: speedwell (bird's-eye speedwell, Veronica persica)
Summary of the method: as §1

[13] = Postemergence, 31 g ai/ha, scale 0 to 100 (0 no effect, 100 complete control)
[14] = Postemergence, 125 g ai/ha, visual rating on scale 0 (no effect) to 100 (complete control), 14 to 21 d
[15] = Postemergence, 250 g ai/ha, scale 0 to 100 (0 no effect, 100 complete control)
[16] = Preemergence, 62 g ai/ha, scale 0 to 100 (0 no effect, 100 complete control)
[17] = Preemergence, 125 g ai/ha, scale 0 to 100 (0 no effect, 100 complete control)
[18] = Preemergence, 250 g ai/ha, scale 0 to 100 (0 no effect, 100 complete control)
[19] = postemergence, 62 g ai/ha, scale 0 to 100, 0 no effect, 100 complete control

## C#CCOC(=O)Oc1c(C)nn(C)c(=O)c1-c1c(C)sc2ccc(C)cc12 [Compound 87]
[1]; [13]
  Barley, Spring plant response rating: 0
[1]; [14]
  Plant response rating, Barley, Spring: 0
[1]; [15]
  Plant response rating, Barley, Spring: 5
[1]; Preemergence, 31 g ai/ha
  Plant response rating (scale of 0 to 100), Barley, Spring: 0
[1]; [16]
  Plant response rating, Barley, Spring: 0
[1]; [17]
  Plant response rating, Barley, Spring: 0
[1]; [18]
  Plant response rating, Barley, Spring: 5
[1]; [19]
  Plant response rating, Barley, Spring: 0
[2]; [13]
  Barley, Winter plant response rating: 0
[2]; [14]
  Plant response rating, Barley, Winter: 5
[2]; [15]
  Plant response rating, Barley, Winter: 5
[2]; Preemergence, 31 g ai/ha
  Plant response rating (scale of 0 to 100), Barley, Winter: 0
[2]; [16]
  Plant response rating, Barley, Winter: 0
[2]; [17]
  Plant response rating, Barley, Winter: 10
[2]; [18]
  Plant response rating, Barley, Winter: 25
[2]; [19]
  Plant response rating, Barley, Winter: 0
[3]; [13]
  Bluegrass plant response rating: 25
[3]; [14]
  Plant response rating, Bluegrass: 45
[3]; [15]
  Plant response rating, Bluegrass: 45
[3]; Preemergence, 31 g ai/ha
  Plant response rating (scale of 0 to 100), Bluegrass: 25
[3]; [16]
  Plant response rating, Bluegrass: 35
[3]; [17]
  Plant response rating, Bluegrass: 45
[3]; [18]
  Plant response rating, Bluegrass: 70
[3]; [19]
  Plant response rating, Bluegrass: 25
[4]; [13]
  Bromegrass, Downy plant response rating: 45
[4]; [14]
  Plant response rating, Bromegrass, Downy: 65
[4]; [15]
  Plant response rating, Bromegrass, Downy: 65
[4]; Preemergence, 31 g ai/ha
  Plant response rating (scale of 0 to 100), Bromegrass, Downy: 25
[4]; [16]
  Plant response rating, Bromegrass, Downy: 65
[4]; [17]
  Plant response rating, Bromegrass, Downy: 75
[4]; [18]
  Plant response rating, Bromegrass, Downy: 80
[4]; [19]
  Plant response rating, Bromegrass, Downy: 65
[5]; [13]
  Canarygrass plant response rating: 55
[5]; [14]
  Plant response rating, Canarygrass: 85
[5]; [15]
  Plant response rating, Canarygrass: 90
[5]; Preemergence, 31 g ai/ha
  Plant response rating (scale of 0 to 100), Canarygrass: 85
[5]; Preemergence, 62 g ai/ha
  Plant response rating (scale of 0 to 100), Canarygrass: 90
[5]; [17]
  Plant response rating, Canarygrass: 90
[5]; [18]
  Plant response rating, Canarygrass: 95
[5]; [19]
  Plant response rating, Canarygrass: 80
[6]; [13]
  Chamomile plant response rating: 90
[6]; [14]
  Plant response rating, Chamomile: 100
[6]; [15]
  Plant response rating, Chamomile: 100
[6]; Preemergence, 31 g ai/ha
  Plant response rating (scale of 0 to 100), Chamomile: 95
[6]; Preemergence, 62 g ai/ha
  Plant response rating (scale of 0 to 100), Chamomile: 95
[6]; [17]
  Plant response rating, Chamomile: 100
[6]; [18]
  Plant response rating, Chamomile: 100
[6]; [19]
  Plant response rating, Chamomile: 100
[7]; [13]
  Foxtail, Green plant response rating: 70
[7]; [14]
  Plant response rating, Foxtail, Green: 80
[7]; [15]
  Plant response rating, Foxtail, Green: 90
[7]; Preemergence, 31 g ai/ha
  Plant response rating (scale of 0 to 100), Foxtail, Green: 10
[7]; Preemergence, 62 g ai/ha
  Plant response rating (scale of 0 to 100), Foxtail, Green: 55
[7]; [17]
  Plant response rating, Foxtail, Green: 95
[7]; [18]
  Plant response rating, Foxtail, Green: 95
[7]; [19]
  Plant response rating, Foxtail, Green: 75
[8]; [13]
  Galium plant response rating: 85
[8]; [14]
  Plant response rating, Galium: 100
[8]; [15]
  Plant response rating, Galium: 100
[8]; Preemergence, 31 g ai/ha
  Plant response rating (scale of 0 to 100), Galium: 15
[8]; Preemergence, 62 g ai/ha
  Plant response rating (scale of 0 to 100), Galium: 40
[8]; [17]
  Plant response rating, Galium: 60
[8]; [18]
  Plant response rating, Galium: 80
[8]; [19]
  Plant response rating, Galium: 100
Kochia (Kochia scoparia); [13]
  Kochia plant response rating: 85
Kochia (Kochia scoparia); [14]
  Plant response rating, Kochia: 90
Kochia (Kochia scoparia); [15]
  Plant response rating, Kochia: 95
Kochia (Kochia scoparia); Preemergence, 31 g ai/ha
  Plant response rating (scale of 0 to 100), Kochia: 0
Kochia (Kochia scoparia); Preemergence, 62 g ai/ha
  Plant response rating (scale of 0 to 100), Kochia: 55
Kochia (Kochia scoparia); [17]
  Plant response rating, Kochia: 100
Kochia (Kochia scoparia); [18]
  Plant response rating, Kochia: 100
Kochia (Kochia scoparia); [19]
  Plant response rating, Kochia: 90
[9]; [13]
  Lambsquarters plant response rating: 95
[9]; [14]
  Plant response rating, Lambsquarters: 100
[9]; [15]
  Plant response rating, Lambsquarters: 100
[9]; Preemergence, 31 g ai/ha
  Plant response rating (scale of 0 to 100), Lambsquarters: 70
[9]; Preemergence, 62 g ai/ha
  Plant response rating (scale of 0 to 100), Lambsquarters: 100
[9]; [17]
  Plant response rating, Lambsquarters: 100
[9]; [18]
  Plant response rating, Lambsquarters: 100
[9]; [19]
  Plant response rating, Lambsquarters: 100
[10]; [13]
  Mustard, Wild plant response rating: 10
[10]; [14]
  Plant response rating, Mustard, Wild: 25
[10]; [15]
  Plant response rating, Mustard, Wild: 60
[10]; Preemergence, 31 g ai/ha
  Plant response rating (scale of 0 to 100), Mustard, Wild: 0
[10]; Preemergence, 62 g ai/ha
  Plant response rating (scale of 0 to 100), Mustard, Wild: 0
[10]; [17]
  Plant response rating, Mustard, Wild: 0
[10]; [18]
  Plant response rating, Mustard, Wild: 25
[10]; [19]
  Plant response rating, Mustard, Wild: 35
[11]; [13]
  Oat, Wild plant response rating: 85
[11]; [14]
  Plant response rating, Oat, Wild: 98
[11]; [15]
  Plant response rating, Oat, Wild: 100
[11]; Preemergence, 31 g ai/ha
  Plant response rating (scale of 0 to 100), Oat, Wild: 80
[11]; Preemergence, 62 g ai/ha
  Plant response rating (scale of 0 to 100), Oat, Wild: 85
[11]; [17]
  Plant response rating, Oat, Wild: 90
[11]; [18]
  Plant response rating, Oat, Wild: 95
[11]; [19]
  Plant response rating, Oat, Wild: 95
[12]; [13]
  Speedwell plant response rating: 70
[12]; [14]
  Plant response rating, Speedwell: 75
[12]; [15]
  Plant response rating, Speedwell: 80
[12]; Preemergence, 31 g ai/ha
  Plant response rating (scale of 0 to 100), Speedwell: 80
[12]; Preemergence, 62 g ai/ha
  Plant response rating (scale of 0 to 100), Speedwell: 85
[12]; [17]
  Plant response rating, Speedwell: 90
[12]; [18]
  Plant response rating, Speedwell: 100
[12]; [19]
  Plant response rating, Speedwell: 75
